Results as given in patent US9913843B2, “Protein kinase C inhibitors and uses thereof” (Rigel Pharmaceuticals, Inc., priority 2012, dated 2018).
Read-outs that look alike come from different tables or passages of the source.

System: PKC mediated IL-2 production in human primary T cells
Test: IL-2 ELISA, human primary T cell, anti CD3+CD28+ (whole cell functional assay for PKC mediated IL-2 production)
Assay type: cell-based
Method: Human primary T cells were prepared as follows. Fresh PBMC's from All Cells (Cat # PB002) were re-suspended in RPMI (RPMI-1640 with L-Glutamine; Mediatech, Inc., Herndon Va., cat. #10-040-CM) with 10% FBS and seeded into flasks and incubated at 37° C. for 2 hours to allow the monocytes to adhere. The non-adherent cells were then centrifuged and re-suspended in RPMI medium containing 40 U/ml IL2 and seeded into a flask pre-coated with 1 μg/ml aCD3 and 5 ug/ml aCD28 (Anti-Human CD3, BD Pharmingen Catalog #555336, Anti-Human CD28, Beckman Coulter Catalog #IM1376). The cells were stimulated for 3-4 days, then transferred to a fresh flask and maintained in RPMI (RPMI-1640 with L-Glutamine; Mediatech, Inc., Herndon Va., cat. #10-040-CM) with 10% FBS and 40 U/ml IL-2.
Human primary T cells (100,000 cells per well) were pre-incubated with or without test compound in RPMI-1640 with L-Glutamine and 10% FBS for 1 hour at 37° C. Cells were then stimulated by transferring them to round-bottom 96-well plates pre-coated with 1 μg/ml aCD3 and 5 μg/ml aCD28. For counter assay, cells were instead stimulated by adding 8× stock solutions of PMA and ionomycin in RPMI-1640 with L-Glutamine and 10% FBS (for final concentrations of 0.5 ng/ml PMA and 0.1 μM ionomycin, both from Calbiochem). Cells were incubated at 37° C. for 24 hours before 100 μL supernatants were harvested for quantification of IL-2 by ELISA using Human IL-2 Duoset ELISA Kit from R and D Systems, Cat. # DY202E.
Compounds 1-156 were tested in a whole cell functional assay for PKC mediated IL-2 production as follows. Human primary T cell isolation and culture: Human primary T cells were prepared as follows. Whole blood was obtained from a healthy volunteer, mixed 1:1 with PBS, layered on to Ficoll Hypaque (Amersham Pharmacia Biotech, Piscataway, N.J., Catalog #17-1440-03) in 2:1 blood/PBS:ficoll ratio and centrifuged for 30 minutes at 4° C. at 1750 rpm. The cells at the serum: ficoll interface were recovered and washed twice with 5 volumes of PBS. These freshly isolated human peripheral blood mononuclear cells were cultured in Yssel's medium containing 40 U/ml IL2 in a flask pre-coated with 1 μg/ml aCD3 and 5 μg/ml aCD28 (Anti-Human CD3, BD Pharmingen Catalog #555336, Anti-Human CD28, Beckman Coulter Catalog #IM1376). The cells were stimulated for 3-4 days, then transferred to a fresh flask and maintained in RPMI (RPMI-1640 with L-Glutamine; Mediatech, Inc., Herndon Va., cat. #10-040-CM) with 10% FBS and 40 U/ml IL-2. The primary T-cells were then washed twice with PBS to remove the IL-2.
Primary T cell stimulation and IL2 ELISA: Human primary T cells (100,000 cells per well) were pre-incubated with or without test compound in Yssel's medium for 1 hour at 37° C. Cells were then stimulated by transferring them to round-bottom 96-well plates pre-coated with 1 μg/ml aCD3 and 5 μg/ml αCD28. For counter assay, cells were instead stimulated by adding 8× stock solutions of PMA and ionomycin in Yssels (for final concentrations of 0.5 ng/ml PMA and 0.1 uM ionomycin, both from Calbiochem). Cells were incubated at 37° C. for 24 hours before 100 μL supernatants were harvested for quantification of IL-2 by ELISA using Human IL-2 Duoset ELISA Kit from R and D Systems, Cat. # DY202E.

[1] = 24 h, human primary T cells stimulated with anti-CD3 + anti-CD28, IL-2 by ELISA, read-out: IC50 for blocking IL-2 production
[2] = human primary T cells stimulated with anti-CD3 + anti-CD28, 24 h, IL-2 by ELISA, 8 pt, read-out: IL2 ELISA, Human primary T cell, anti-CD3 + CD28, 8 pt (IC50)

Structure (SMILES) | IC50 [1] [µM] | IC50 [2] [µM]
Fc1cc(Nc2ncc(F)c(NC[C@@H]3CCCN4CCCC[C@H]34)n2)cc(S(F)(F)(F)(F)F)c1 [Compound 30, 5-fluoro-N2-(3-pentafluorosulfanyl-5-fluoro-phenyl)-N4-(((1S,9aR)-octahydro-1H-quinolizin-1-yl)methyl)pyrimidine-2,4-diamine] | < 30 | 0.672
CC1(C)Oc2cc(Nc3ncc(F)c(NC[C@@H]4CCCN5CCCC[C@H]45)n3)cnc2N(CC2CC2)C1=O [Compound 31, 7-(4-(((1S,9aR)-octahydro-1H-quinolizin-1-yl)methylamino)-5-fluoropyrimidin-2-ylamino)-4-(cyclopropylmethyl)-2,2-dimethyl-2H-pyrido[3,2-b][1,4]oxazin-3(4H)-one] | < 30 | 0.359
Fc1cc(C2CC2)c(-n2cnnn2)cc1Nc1ncc(Cl)c(NC[C@@H]2CCCN3CCCC[C@H]23)n1 [Compound 32, 5-chloro-N2-(4-cyclopropyl-2-fluoro-5-(1H-tetrazol-1-yl)phenyl)-N4-(((1S,9aR)-octahydro-1H-quinolizin-1-yl)methyl)pyrimidine-2,4-diamine] | < 30 | 0.159
Cc1ccc(Nc2ncc(Cl)c(NC[C@@H]3CCCN4CCCC[C@H]34)n2)cc1-n1cnnn1 [Compound 33, 5-chloro-N4-(((1S,9aR)-octahydro-1H-quinolizin-1-yl)methyl)-N2-(4-methyl-3-(1H-tetrazol-1-yl)phenyl)pyrimidine-2,4-diamine] | < 30 | 0.117
Cn1nnn(-c2cc(Nc3ncc(Cl)c(NC[C@@H]4CCCN5CCCC[C@H]45)n3)c(F)cc2C2CC2)c1=O [Compound 34, 1-(5-(4-(((1S,9aR)-octahydro-1H-quinolizin-1-yl)methylamino)-5-chloropyrimidin-2-ylamino)-2-cyclopropyl-4-fluorophenyl)-4-methyl-1H-tetrazol-5(4H)-one] | < 30 | 0.67
Cc1nnnn1-c1cc(Nc2ncc(Cl)c(NC[C@@H]3CCCN4CCCC[C@H]34)n2)ccc1F [Compound 35, 5-chloro-N2-(4-fluoro-3-(5-methyl-1H-tetrazol-1-yl)phenyl)-N4-(((1S,9aR)-octahydro-1H-quinolizin-1-yl)methyl)pyrimidine-2,4-diamine] | < 30 | 0.0542
Cc1nnnn1-c1ccc(F)c(Nc2ncc(Cl)c(NC[C@@H]3CCCN4CCCC[C@H]34)n2)c1 [Compound 36, 5-chloro-N2-(2-fluoro-5-(5-methyl-1H-tetrazol-1-yl)phenyl)-N4-(((1S,9aR)-octahydro-1H-quinolizin-1-yl)methyl)pyrimidine-2,4-diamine] | < 30 | 0.112
COc1ccc(Nc2ncc(Cl)c(NC[C@@H]3CCCN4CCCC[C@H]34)n2)cc1-n1nnnc1C [Compound 37, 5-chloro-N4-(((1S,9aR)-octahydro-1H-quinolizin-1-yl)methyl)-N2-(4-methoxy-3-(5-methyl-1H-tetrazol-1-yl)phenyl)pyrimidine-2,4-diamine] | < 30 | 0.0872
COc1cc(Nc2ncc(Cl)c(NC[C@@H]3CCCN4CCCC[C@H]34)n2)cc(-n2nnnc2C)c1 [Compound 38, 5-chloro-N4-(((1S,9aR)-octahydro-1H-quinolizin-1-yl)methyl)-N2-(3-methoxy-5-(5-methyl-1H-tetrazol-1-yl)phenyl)pyrimidine-2,4-diamine] | < 30 | 0.126
N#Cc1cccc(Nc2ncc(Cl)c(NC[C@@H]3CCCN4CCCC[C@H]34)n2)c1 [Compound 39, 3-(4-(((1S,9aR)-octahydro-1H-quinolizin-1-yl)methylamino)-5-chloropyrimidin-2-ylamino)benzonitrile] | < 30 | 0.418
Cc1ccc(Nc2ncc(Cl)c(NC[C@@H]3CCCN4CCCC[C@H]34)n2)cc1C#N [Compound 40, 5-(4-(((1S,9aR)-octahydro-1H-quinolizin-1-yl)methylamino)-5-chloropyrimidin-2-ylamino)-2-methylbenzonitrile] | < 30 | 0.267
N#Cc1cc(Nc2ncc(Cl)c(NC[C@@H]3CCCN4CCCC[C@H]34)n2)ccc1C1CC1 [Compound 41, 5-(4-(((1S,9aR)-octahydro-1H-quinolizin-1-yl)methylamino)-5-chloropyrimidin-2-ylamino)-2-cyclopropylbenzonitrile] | < 30 | 0.0723

The remaining lines, values ahead:

IC50 [1] [µM] | IC50 [2] [µM] | Structure (SMILES)
< 30 | 0.697 | COc1ccc(Nc2ncc(F)c(NC[C@@H]3CCCN4CCCC[C@H]34)n2)cc1-c1cnco1 [Compound 22, 5-fluoro-N4-(((1S,9aR)-octahydro-1H-quinolizin-1-yl)methyl)-N2-(4-methoxy-3-(oxazol-5-yl)phenyl)pyrimidine-2,4-diamine]
< 30 | 0.0663 | Cc1nnnn1-c1cc(Nc2ncc(F)c(NC[C@@H]3CCCN4CCCC[C@H]34)n2)c(F)cc1C1CC1 [Compound 23, N2-(4-cyclopropyl-2-fluoro-5-(5-methyl-1H-tetrazol-1-yl)phenyl)-5-fluoro-N4-(((1S,9aR)-octahydro-1H-quinolizin-1-yl)methyl)pyrimidine-2,4-diamine]
< 30 | 3.45 | O=S1(=O)CCCN1c1cc(Nc2ncc(F)c(NC[C@@H]3CCCN4CCCC[C@H]34)n2)ccc1F [Compound 24, N2-[3-(1,1-dioxo-isothiazolidin-2-yl)-4-fluoro-phenyl]-5-fluoro-N4-(((1S,9aR)-octahydro-1H-quinolizin-1-yl)methyl)-pyrimidine-2,4-diamine]
< 30 | 0.853 | CC1(C)Oc2cc(Nc3ncc(F)c(NC[C@@H]4CCCN5CCCC[C@H]45)n3)ccc2N(CCCF)C1=O [Compound 25, 7-(4-(((1S,9aR)-octahydro-1H-quinolizin-1-yl)methylamino)-5-fluoropyrimidin-2-ylamino)-4-(3-fluoropropyl)-2,2-dimethyl-2H-benzo[b][1,4]oxazin-3(4H)-one]
< 30 | 0.169 | O=C1COc2cc(Nc3ncc(F)c(NC[C@@H]4CCCN5CCCC[C@H]45)n3)ccc2N1CC1CC1 [Compound 26, 7-(4-(((1S,9aR)-octahydro-1H-quinolizin-1-yl)methylamino)-5-fluoropyrimidin-2-ylamino)-4-(cyclopropylmethyl)-2H-benzo[b][1,4]oxazin-3(4H)-one]
< 30 | 0.652 | CCN1C(=O)C(F)(F)Oc2cc(Nc3ncc(F)c(NC[C@@H]4CCCN5CCCC[C@H]45)n3)cnc21 [Compound 27, 7-(4-(((1S,9aR)-octahydro-1H-quinolizin-1-yl)methylamino)-5-fluoropyrimidin-2-ylamino)-4-ethyl-2,2-difluoro-2H-pyrido[3,2-b][1,4]oxazin-3(4H)-one]
< 30 | 1.81 | Cn1nnnc1Oc1cc(Nc2ncc(F)c(NC[C@@H]3CCCN4CCCC[C@H]34)n2)c(F)cc1C1CC1 [Compound 28, N2-(5-(1-methyl-1H-tetrazol-5-yloxy)-4-cyclopropyl-2-fluorophenyl)-5-fluoro-N4-(((1S,9aR)-octahydro-1H-quinolizin-1-yl)methyl)pyrimidine-2,4-diamine]
< 30 | 1.8 | Fc1ccc(S(F)(F)(F)(F)F)cc1Nc1ncc(F)c(NC[C@@H]2CCCN3CCCC[C@H]23)n1 [Compound 29, 5-fluoro-N2-(3-pentafluorosulfanyl-6-fluoro-phenyl)-N4-(((1S,9aR)-octahydro-1H-quinolizin-1-yl)methyl)pyrimidine-2,4-diamine]
